Reference: patent US20200404919A1, “USE OF HETEROARYL-TRIAZOLE AND HETEROARYL-TETRAZOLE COMPOUNDS AS PESTICIDES IN PLANT PROTECTION” (Bayer Aktiengesellschaft, priority 2018, published 2020)

Tests used:
Type in all cases: in vivo
[1] = system: Nezara viridula; experiment: Nezara viridula - spray test 2; settings: 96 h, barley plants, larvae, after 4 days
Procedure: Nezara viridula—Spray Test 2
(§1) To produce a suitable preparation of active compound, 1 part by weight of active compound is mixed with the stated amount of solvent, and the concentrate is diluted with water, containing an emulsifier concentration of 1000 ppm, to the desired concentration. Ammonium salt and/or penetration enhancer in a dosage of 1000 ppm are added to the desired concentration if necessary.
Barley plants (Hordeum vulgare) infested with larvae of the southern green stink bug (Nezara viridula) are sprayed with a test solution containing the desired concentration of the active ingredient.
After 4 days mortality in % is determined. 100% means all the stink bugs have been killed; 0% means none of the stink bugs have been killed.

[2] = system: Diabrotica balteata; experiment: Diabrotica balteata - spray test; settings: 168 h, 160 μg/well, germinated wheat seeds, larvae, after 7 days, read-out: efficacy in %
Summary of the method: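 Efficacy (%) read 7 days after infesting treated seedlings with 10-20 banded cucumber beetle larvae, 100% meaning growth as in uninfected untreated control and 0% no growth. Test solutions in water containing 1000 ppm emulsifier were sprayed onto wheat seeds germinated for 1 day on agar.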

[3] = system: Myzus persicae; experiment: Myzus persicae - spray test; settings: foliar, 120 h, Chinese cabbage leaf disks, all instars, after 5 days
Procedure: Myzus persicae—Spray Test
To produce a suitable preparation of active compound, 1 part by weight of active compound is mixed with the stated amount of solvents and is diluted with water, containing an emulsifier concentration of 1000 ppm, to the desired concentration. Further test concentrations are prepared by dilution with emulsifier containing water.
Chinese cabbage (Brassica pekinensis) leaf disks infected with all instars of the green peach aphid (Myzus persicae), are sprayed with a preparation of the active ingredient of the desired concentration.
After 5 days mortality in % is determined. 100% means all aphids have been killed and 0% means none of the aphids have been killed.

[4] = system: Nilaparvata lugens; experiment: Nilaparvata lugens - spray test 2; settings: 96 h, rice plants, larvae, after 4 days
Procedure: Nilaparvata lugens —Spray Test 2
as §1, with “solvents” for “solvent,”, “and” for “and the concentrate”, “concentration. Further test concentrations are prepared by dilution with emulsifier containing water.” for “concentration.”
Rice plants (Oryza sativa) are treated by being sprayed with the desired concentration of the active compound and are infested with larvae of the brown planthopper (Nilaparvata lugens).
After 4 days mortality in % is determined. 100% means all planthoppers have been killed and 0% means none of the planthoppers have been killed.

[5] = system: Aphis gossypii; experiment: Aphis gossypii - oral test; settings: 120 h, read-out: mortality in %
Summary of the method: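 Oral exposure: compound solution, prepared from acetone concentrate diluted in water, combined with sugar-supplemented IPL41 medium and sealed under parafilm for aphid feeding. Percent kill recorded at day 5.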

[6] = system: Spodoptera frugiperda; experiment: Spodoptera frugiperda - spray test; settings: in Zea mays, 168 h, read-out: mortality in %
Summary of the method: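 Leaf-spray assay on maize: sections treated with active ingredient at the desired concentration in emulsifier-containing water (1000 ppm) and, once dry, exposed to armyworm caterpillars. Kill rate is expressed in percent after seven days.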

[7] = system: Nezara viridula; experiment: Nezara viridula - spray test 1; settings: in Hordeum vulgare, 96 h, read-out: mortality in %
Summary of the method: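 Percent kill of Nezara viridula larvae was read 4 days after spraying infested barley (Hordeum vulgare). The spray was the compound concentrate diluted in 1000 ppm emulsifier-containing water.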

[8] = system: Nilaparvata lugens; experiment: Nilaparvata lugens - spray test 1; settings: in Oryza sativa, 96 h, read-out: mortality in %, 500 g/ha, rice plants, after 4 days
Summary of the method: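 Mortality (%) was scored 4 days after infesting treated plants with brown planthopper, where 100% means all insects were killed. Compound was applied by spraying rice (Oryza sativa) at the desired concentration, diluted in water carrying 1000 ppm emulsifier.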

[9] = system: Myzus persicae; experiment: Myzus persicae - oral test; settings: 120 h, read-out: mortality in %
Summary of the method: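 Scoring at day 5 gives percent mortality (0% none, 100% all killed) of a mixed aphid population that sucked compound preparation in sugar-supplemented IPL41 medium through a parafilm seal.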

[10] = system: Phaedon cochleariae; experiment: Phaedon cochleariae - spray test; settings: in Brassica rapa, foliar, 168 h, read-out: mortality in %
Summary of the method: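 Mortality read 7 days after infestation; 100% means every larva dead, 0% none. Larvae placed on dried Chinese cabbage leaf disks previously sprayed with compound preparation diluted in emulsifier-containing water (1000 ppm).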

[11] = system: Culex quinquefasciatus; experiment: Culex test (CULXFAS surface treatment & contact assay); settings: 30 minutes exposure, 24 hours after contact, read-out: efficacy (mortality in percent); for mortality at 4 mg/m2: surface concentration 4 mg/m^2, glazed tile; for mortality at 20 mg/m2: surface concentration 20 mg/m^2, glazed tile; for mortality at 100 mg/m2: surface concentration 100 mg/m^2, glazed tile
Summary of the method: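 Test compound dissolved in acetone + 2000 ppm rapeseed oil methyl ester, applied to glazed tile and acetone evaporated; adult mosquitoes exposed on dried surface for 30 minutes. Mortality (%) scored 24 hours after contact; 100% = all insects dead, 0% = none dead.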

[12] = system: Aedes aegypti strain MONHEIM; experiment: Aedes test (AEDSAE surface treatment & contact assay); settings: 30 minutes exposure, 24 hours after contact, read-out: efficacy (mortality in percent); for mortality at 4 mg/m2: surface concentration 4 mg/m^2, glazed tile; for mortality at 20 mg/m2: surface concentration 20 mg/m^2, glazed tile; for mortality at 100 mg/m2: surface concentration 100 mg/m^2, glazed tile
Summary of the method: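 Compound in acetone plus 2000 ppm RME applied to glazed tile; after acetone evaporation, adult mosquitoes held on dried surface for 30 minutes. Percent mortality scored 24 hours after contact.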

[13] = system: Anopheles funestus strain FUMOZ-R; experiment: Anopheles test (ANPHFU surface treatment & contact assay); settings: 30 minutes exposure, 24 hours after contact, read-out: efficacy (mortality in percent); for mortality at 4 mg/m2: surface concentration 4 mg/m^2, glazed tile; for mortality at 20 mg/m2: surface concentration 20 mg/m^2, glazed tile; for mortality at 100 mg/m2: surface concentration 100 mg/m^2, glazed tile
Source text: Anopheles Test (ANPHFU Surface Treatment & Contact Assay)
Solvent: Acetone+2000 ppm rapeseed oil methyl ester (RME)
In order to produce a sufficient, active ingredient containing solution it is necessary to solve the test-compound in an acetone/RME solvent mixture. This solution is pipetted onto a glazed tile and after evaporation of the acetone, adult mosquitoes of the species Anopheles funestus strain FUMOZ-R (Hunt et al., Med Vet Entomol. 2005 Sep. 19(3):271-5) are placed onto the dried surface. The exposure time is 30 minutes.
Mortality in percent (%) is determined 24 hours after contact to the treated surface. 100% mortality means that all test-insects are dead, whereas 0% means that not a single insect died.

[14] = system: Meloidogyne incognita; experiment: Meloidogyne incognita - test; settings: 336 h, salad seedlings in sand, after 14 days, read-out: nematicidal activity (percentage of gall formation)
Procedure: Meloidogyne incognita—Test
Solvent: 125.0 parts by weight of acetone
To produce a suitable preparation of active compound, 1 part by weight of active compound is mixed with the stated amount of solvent, and the concentrate is diluted with water to the desired concentration.
Vessels are filled with sand, a solution of the active ingredient, a suspension containing eggs and larvae of the southern root-knot nematode (Meloidogyne incognita) and salad seeds. The salad seeds germinate and the seedlings grow. Galls develop in the roots.
After 14 days the nematicidal activity is determined on the basis of the percentage of gall formation. 100% means no galls were found and 0% means the number of galls found on the roots of the treated plants was equal to that in untreated control plants.

[15] = system: Musca domestica strain WHO-N; experiment: Musca domestica test (MUSCDO surface treatment & contact assay); settings: 30 minutes exposure, 24 hours after contact, read-out: efficacy (mortality in percent)
Summary of the method: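 Compound in acetone with 2000 ppm rapeseed oil methyl ester applied to glazed tile; after acetone evaporation, adult Musca domestica WHO-N flies exposed on dried surface for 30 minutes. Mortality (%) assessed 24 hours after contact.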

Row | SMILES | mortality at 500 g/ha [1] | pest or weed control at 160 µg/disc, 160 µg/well [2] | mortality at 500 g/ha [3] | mortality at 500 g/ha [4] | mortality at 100 ppm [5] | mortality at 500 g/ha [6] | mortality at 500 g/ha [7] | mortality at 500 g/ha [8] | mortality at 20 ppm [9] | mortality at 500 g/ha [10] | mortality at 4 mg/m2 [11] | mortality at 20 mg/m2 [11] | mortality at 100 mg/m2 [11] | mortality at 4 mg/m2 [12] | mortality at 20 mg/m2 [12] | mortality at 100 mg/m2 [12] | mortality at 4 mg/m2 [13] | mortality at 20 mg/m2 [13] | mortality at 100 mg/m2 [13] | also measured
1 | CC(c1ncnn1-c1ncccn1)N(CC1CC1)C(=O)c1cc(Cl)cc(C(F)(F)F)c1 (centres unmarked) [Compound I-40, 3-chloro-N-(cyclopropylmethyl)-N-[1-(2-pyrimidin-2-yl-1,2,4-triazol-3-yl)ethyl]-5-(trifluoromethyl)benzamide] | 100% | 100% | 90% | 100% | 100% | 100% | 100% | 100% | 100% | 100% | – | – | – | – | – | – | – | – | – | –
2 | CC(NC(=O)c1cc(Cl)cc(C(F)(F)F)c1)c1ncnn1-c1ncccn1 (centres unmarked) [Compound I-76] | 100% | 100% | – | 100% | 100% | 100% | 100% | 100% | 100% | 100% | – | – | – | – | – | – | – | – | – | –
3 | C[C@@H](c1ncnn1-c1ncccn1)N(CC1CC1)C(=O)c1cc(Cl)cc(C(F)(F)F)c1 [Compound I-93, 3-chloro-N-(cyclopropylmethyl)-N-[(1S)-1-(2-pyrimidin-2-yl-1,2,4-triazol-3-yl)ethyl]-5-(trifluoromethyl)benzamide] | 100% | 100% | 100% | 100% | 100% | 100% | – | 100% | 100% | 100% | 80 to 100% | 80 to 100% | 80 to 100% | 80 to 100% | 80 to 100% | 80 to 100% | 80 to 100% | 80 to 100% | 80 to 100% | pest or weed control at 20 ppm [14]: 100%
4 | C[C@H](NC(=O)c1cc(Cl)cc(C(F)(F)F)c1)c1ncnn1-c1ncccn1 [Compound I-113, 3-chloro-N-[(1S)-1-(2-pyrimidin-2-yl-1,2,4-triazol-3-yl)ethyl]-5-(trifluoromethyl)benzamide] | – | 100% | – | – | 100% | 100% | 100% | 100% | 100% | 100% | 80 to 100% | 80 to 100% | 80 to 100% | 80 to 100% | 80 to 100% | 80 to 100% | 80 to 100% | 80 to 100% | 80 to 100% | mortality at 4 mg/m2 ([15]; surface concentration 4 mg/m^2, glazed tile): 80 to 100%; mortality at 20 mg/m2 ([15]; surface concentration 20 mg/m^2, glazed tile): 80 to 100%
